One compound from patent publication US6498176B1, “3-(anilinomethylene) oxindoles as protein tyrosine kinase and protein serine/threonine kinase inhibitors” (SmithKlineBeecham Corporation, priority 1999, dated 2002) can be followed below.

For assay [1], the target named is T1, c-fms intracellular domain (Homo sapiens, UniProt P07333).
T1 construct: The c-fms intracellular domain was expressed from a baculovirus expression system, as an amino-terminal GST fusion protein; GST (N); made in house; host or cells: baculovirus expression system
T1 sequence (P07333 539-972 limits assumed): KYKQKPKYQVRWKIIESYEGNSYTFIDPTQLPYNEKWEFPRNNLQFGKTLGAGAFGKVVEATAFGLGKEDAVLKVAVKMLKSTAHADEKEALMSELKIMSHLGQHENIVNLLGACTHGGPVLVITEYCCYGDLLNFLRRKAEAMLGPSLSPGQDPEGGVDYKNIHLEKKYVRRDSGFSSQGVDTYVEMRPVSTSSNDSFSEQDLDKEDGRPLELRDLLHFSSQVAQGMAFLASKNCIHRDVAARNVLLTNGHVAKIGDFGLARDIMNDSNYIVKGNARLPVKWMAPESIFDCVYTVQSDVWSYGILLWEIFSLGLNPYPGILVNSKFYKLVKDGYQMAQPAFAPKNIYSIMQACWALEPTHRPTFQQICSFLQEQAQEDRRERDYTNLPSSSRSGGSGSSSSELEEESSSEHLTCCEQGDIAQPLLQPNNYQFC
The assay can be described thus: c-fms protein kinase assay. The conditions noted are these: 1.7 μM ATP, 90 min at room temperature; read-out: Kinase inhibition c-fms (IC50). It is filed as biochemical. On the procedure: c-fms protein kinase assays utilized the peptide substrate, biotin-[…]-NH2, as the phosphoryl group acceptor. The c-fms intracellular domain was expressed from a baculovirus expression system, as an amino-terminal GST fusion protein, and purified to homogeneity using Glutathione agarose from Sigma Chemical Co. Maximum activation of the enzyme was achieved by preactivation at room temperature for 120 min in the presence of 100 μM ATP and 15 mM MgCl2, This enzyme stock was diluted to 150 nM prior to using in the assay. Typically assays were performed in white, opaque, 96-well plates in a 45 ul assay volume including 15 ul 6% DMSO, with or without compounds, 15 ul of the preactivated, diluted enzyme, and 15 ul of a substrate mixture. Reactions contained 50 mM HEPES, pH 7.5, 1.7 μM ATP, 15 mM MgCl2, 3 μM peptide, 2.5 mM DTT, 50 mM NaCl and 0.15 uCi/assay [^32P]ATP. The controls were reactions in the presence (negative controls) or absence (positive controls) of 50 mM EDTA. Reactions were allowed to proceed for 90 min at room temperature. The reaction products were quantified using Scintillation Proximity technolgy. […] Plates were sealed and counted in a Packard Topcount scintillation counter. […]

Assay [2] has as its system human umbilical vein endothelial cells (HUVECs). Briefly: HUVEC BrdU incorporation, VEGF stimulation. It is filed as cell-based. The conditions noted are these: 20 ng/ml VEGF, 72 hrs; read-out: Inhibition of BrdU incorporation in HUVEC cells, VEGF stimulation (IC50).
Excerpt: (§1) An assay to measure this effect involves measurement of the inhibition of bromo-deoxy uridine (BrdU) incorporation (evidence of DNA synthesis) in human umbilical vein endothelial cells (HUVECs).
(§2) HUVEC cells and EGM (Endothelial cell growth medium) were purchased from Clonetics (San Diego, Calif.). VEGF and bFGF were purchased from Genzyme. M199 medium (Gibco BRL) with BSA (Sigma) was used for cell culture in Type I collagen coated plates (Becton Dickinson). The degree of BrdU incorporation was measured using a commercial colorimetric ELISA assay from Boehringer Mannheim.
(§3) HUVECs were plated at a density of 2500 cells per well in M199 medium containing 5% FBS (Hyclone) in a Type-I Collagen coated plate. The plate was incubated at 37° C. overnight. The medium was removed by aspiration, and test compounds were added to each well in a volume of 0.1 ml per well in serum-free M199 medium. […] The plate was incubated for 30 min at 37° C. Another 0.1 ml of serum-free M199 medium containing BSA and VEGF (or bFGF) was added to give a final concentration of 0.1% BSA and 20 ng/ml VEGF (0.3 ng/ml bFGF). The plate was incubated at 37° C. for 72 hrs. BrdU was added to each well after the first 48 hrs to give a concentration of 10 micomolar. The calorimetric ELISA assay was performed according to manufacturer's instructions, with detection by absorbance reading at 450 nm.
Assay [3] has the same test system. The assay can be described thus: HUVEC BrdU incorporation, bFGF stimulation. It is filed as cell-based. The conditions noted are these: 0.3 ng/ml bFGF, 72 hrs; read-out: Inhibition of BrdU incorporation in HUVEC cells, BFGF Stimulation (IC50).
Excerpt: as §1, §2, §3

Take `O=C1Nc2ccc3ncccc3c2/C1=C/Nc1ccc(CCO)cc1` [Example 32]: the IC50 in assay [1] was more than 100 nM; in assay [2], 10 to 500 nM; in assay [3] it was 1100 to 5000 nM.
